Experiment: Plasma pharmacokinetics of TSU-68 in phase I patients
Format: in vivo, human
Details: for AUC(0-t) / AUC / Cmax / half-life / Tmax: human, plasma, oral; for Tmax: 200 mg/m2, T max
[1] = b.i.d. after meal, 3rd dose, 200 mg/m^2, n=3, mean ± SD

Cc1[nH]c(/C=C2\C(=O)Nc3ccccc32)c(C)c1CCC(=O)O [TSU-68, (Z)-5-[(1,2-dihydro-2-oxo-3H-indol-3-ylidene)methyl]-2,4-dimethyl-1H-pyrrole-3-propanoic acid]
AUC0–t (b.i.d. after meal, 1st dose, 400 mg/m^2, n=6, mean ± SD): 76.44 ± 23.07 h
AUC0–t [1]: 33.28 ± 4.329 h
AUC0–t (b.i.d. after meal, 3rd dose, 500 mg/m^2, n=3, mean ± SD): 45.74 ± 14.59 h
C max and AUC after repeated administration versus 1st administration on day 1 (b.i.d. regimen, any dose level, days 2 and 28): approximately twofold lower
AUC(0-t) (200 mg/m2, AUC0–t, b.i.d. after meal, 1st dose, 200 mg/m^2, n=3, mean ± SD): 55200 ± 5360 ng·h/mL
AUC(0-t) (200 mg/m2, AUC0–t, b.i.d. after meal, 56th dose, 200 mg/m^2, n=3, mean ± SD): 32200 ± 1540 ng·h/mL
AUC(0-t) (200 mg/m2, AUC0–t, t.i.d. after meal, 1st dose, 200 mg/m^2, n=6, mean ± SD): 37000 ± 18200 ng·h/mL
AUC(0-t) (200 mg/m2, AUC0–t, t.i.d. after meal, 2nd dose, 200 mg/m^2, n=6, mean ± SD): 31500 ± 12500 ng·h/mL
AUC (200 mg/m2, AUC Day 28, Pt 1, Cervical ca., b.i.d. 200 mg/m^2 (800 mg/day)): 32800 ng·h/mL
AUC (200 mg/m2, AUC Day 28, Pt 2, NSCLC, b.i.d. 200 mg/m^2 (800 mg/day)): 33400 ng·h/mL
AUC (200 mg/m2, AUC Day 28, Pt 13, Colon ca., t.i.d. 200 mg/m^2 (1200 mg/day)): 25300 ng·h/mL
AUC (200 mg/m2, AUC Day 28, Pt 14, Soft tissue sa., t.i.d. 200 mg/m^2 (600 mg/day)): 19000 ng·h/mL
Cmax (200 mg/m2, C max, b.i.d. after meal, 1st dose, 200 mg/m^2, n=3, mean ± SD): 11200 ± 1150 ng/mL
Cmax (200 mg/m2, C max, b.i.d. after meal, 3rd dose, 200 mg/m^2, n=3, mean ± SD): 6000 ± 671 ng/mL
Cmax (200 mg/m2, C max, b.i.d. after meal, 56th dose, 200 mg/m^2, n=3, mean ± SD): 4790 ± 526 ng/mL
Cmax (200 mg/m2, C max, t.i.d. after meal, 1st dose, 200 mg/m^2, n=6, mean ± SD): 11000 ± 5530 ng/mL
Cmax (200 mg/m2, C max, t.i.d. after meal, 2nd dose, 200 mg/m^2, n=6, mean ± SD): 7010 ± 2410 ng/mL
Cmax (200 mg/m2, C max, t.i.d. after meal, 84th dose, 200 mg/m^2, n=6, mean ± SD): 3850 ± 2980 ng/mL
half-life (200 mg/m2, T 1/2, b.i.d. after meal, 1st dose, 200 mg/m^2, n=3, mean ± SD): 2.37 ± 0.86 h
half-life (200 mg/m2, T 1/2, b.i.d. after meal, 3rd dose, 200 mg/m^2, n=3, mean ± SD): 2.71 ± 0.471 h
half-life (200 mg/m2, T 1/2, b.i.d. after meal, 56th dose, 200 mg/m^2, N = 2, mean): 3.47 h
half-life (200 mg/m2, T 1/2, t.i.d. after meal, 1st dose, 200 mg/m^2, N = 3, mean ± SD): 2.04 ± 0.461 h
half-life (200 mg/m2, T 1/2, t.i.d. after meal, 2nd dose, 200 mg/m^2, N = 2, mean): 2.99 h
Tmax (b.i.d. after meal, 1st dose, 200 mg/m^2, n=3, mean ± SD): 3 ± 1 h
Tmax [1]: 3.5 ± 2.29 h
Tmax (b.i.d. after meal, 56th dose, 200 mg/m^2, n=3, mean ± SD): 2.67 ± 1.16 h
Tmax (t.i.d. after meal, 1st dose, 200 mg/m^2, n=6, mean ± SD): 3.08 ± 1.43 h
Tmax (t.i.d. after meal, 2nd dose, 200 mg/m^2, n=6, mean ± SD): 3.67 ± 1.37 h
Tmax (t.i.d. after meal, 84th dose, 200 mg/m^2, n=6, mean ± SD): 2 ± 1.05 h
AUC (200 mg/m^2 t.i.d., AUC Day 28, Pt 18, Colon ca., t.i.d. 200 mg/m^2 (1,200 mg/day)): 12500 ng·h/mL
AUC(0-t) (400 mg/m2, AUC0–t, b.i.d. after meal, 3rd dose, 400 mg/m^2, n=6, mean ± SD): 40400 ± 10600 ng·h/mL
AUC(0-t) (400 mg/m2, AUC0–t, b.i.d. after meal, 56th dose, 400 mg/m^2, N = 4, mean ± SD): 36900 ± 20300 ng·h/mL
AUC(0-t) (400 mg/m2, AUC0–t, t.i.d. after meal, 1st dose, 400 mg/m^2, n=6, mean ± SD): 41600 ± 21600 ng·h/mL
AUC(0-t) (400 mg/m2, AUC0–t, t.i.d. after meal, 2nd dose, 400 mg/m^2, n=6, mean ± SD): 42000 ± 18900 ng·h/mL
AUC(0-t) (400 mg/m2, AUC0–t, t.i.d. after meal, 84th dose, 400 mg/m^2, n=6, mean ± SD): 31600 ± 16100 ng·h/mL
Cmax (400 mg/m2, C max, b.i.d. after meal, 1st dose, 400 mg/m^2, n=6, mean ± SD): 17100 ± 6590 ng/mL
Cmax (400 mg/m2, C max, b.i.d. after meal, 3rd dose, 400 mg/m^2, n=6, mean ± SD): 8290 ± 2720 ng/mL
Cmax (400 mg/m2, C max, b.i.d. after meal, 56th dose, 400 mg/m^2, N = 4, mean ± SD): 8410 ± 5870 ng/mL
Cmax (400 mg/m2, C max, t.i.d. after meal, 1st dose, 400 mg/m^2, n=6, mean ± SD): 12400 ± 5760 ng/mL
Cmax (400 mg/m2, C max, t.i.d. after meal, 2nd dose, 400 mg/m^2, n=6, mean ± SD): 9340 ± 4510 ng/mL
Cmax (400 mg/m2, C max, t.i.d. after meal, 84th dose, 400 mg/m^2, n=6, mean ± SD): 4780 ± 1950 ng/mL
half-life (400 mg/m2, T 1/2, b.i.d. after meal, 1st dose, 400 mg/m^2, n=6, mean ± SD): 2.94 ± 0.692 h
half-life (400 mg/m2, T 1/2, b.i.d. after meal, 3rd dose, 400 mg/m^2, n=6, mean ± SD): 3.45 ± 1.37 h
half-life (400 mg/m2, T 1/2, b.i.d. after meal, 56th dose, 400 mg/m^2 (6), mean ± SD): 2.6 ± 0.527 h

— PMC3082038 (Cancer Chemotherapy and Pharmacology, 2010)
